Experimental data from US20230365592A1 (Agios Pharmaceuticals, Inc., priority 2022, published 2023).

Each compound was assayed against T1, human PAH with the R408W mutation (Homo sapiens, UniProt P00439, R408W) (assay: Cell Based Phenylalanine Flux Assay). Conditions: A375 cells expressing human R408W PAH; 24 hrs compound incubation; 13C-Tyrosine by LC-MS; average where tested multiple times; read-out: AC50.
T1 construct: expressed in transfected cells
T1 sequence (P00439 1-452 R408W): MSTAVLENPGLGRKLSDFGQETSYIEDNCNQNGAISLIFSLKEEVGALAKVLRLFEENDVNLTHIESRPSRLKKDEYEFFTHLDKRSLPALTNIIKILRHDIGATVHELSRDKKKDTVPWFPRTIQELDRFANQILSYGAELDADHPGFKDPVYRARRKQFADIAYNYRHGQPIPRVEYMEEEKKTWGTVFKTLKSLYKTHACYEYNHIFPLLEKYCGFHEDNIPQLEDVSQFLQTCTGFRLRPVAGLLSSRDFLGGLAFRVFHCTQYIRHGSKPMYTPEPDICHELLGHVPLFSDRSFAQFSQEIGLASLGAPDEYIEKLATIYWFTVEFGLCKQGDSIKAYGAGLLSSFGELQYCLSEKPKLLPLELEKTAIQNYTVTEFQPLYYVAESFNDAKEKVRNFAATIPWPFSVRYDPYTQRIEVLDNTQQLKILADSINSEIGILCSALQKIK
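Also: after compound treatment, cells received sepiapterin plus isotope-labelled Phenylalanine for 4 hours, then labelled Tyrosine in the medium was quantified, 10-point 2-fold dilution series run in duplicate.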

Structure (SMILES) | AC50
O=C(c1nnc(C2CCC2)o1)N1CCc2[nH]cnc2[C@@H]1c1cc2c(C(F)F)cccn2n1 [Example 1521, (R)-(5-cyclobutyl-1,3,4-oxadiazol-2-yl)(4-(4-(difluoromethyl)pyrazolo[1,5-a]pyridin-2-yl)-6,7-dihydro-1H-imidazo[4,5-c]pyridin-5(4H)-yl)methanone] | 1000 to 5000 nM
O=C(c1nnc(-c2cccnc2)o1)N1CCc2[nH]cnc2[C@H]1c1cc2cccc(F)n2n1 [Example 1522, (S)-(4-(7-fluoropyrazolo[1,5-a]pyridin-2-yl)-6,7-dihydro-1H-imidazo[4,5-c]pyridin-5(4H)-yl)(5-(pyridin-3-yl)-1,3,4-oxadiazol-2-yl)methanone] | < 500 nM
O=C(c1nnc(-c2cccnc2)o1)N1CCc2[nH]cnc2[C@@H]1c1cc2cccc(F)n2n1 [Example 1523, (R)-(4-(7-fluoropyrazolo[1,5-a]pyridin-2-yl)-6,7-dihydro-1H-imidazo[4,5-c]pyridin-5(4H)-yl)(5-(pyridin-3-yl)-1,3,4-oxadiazol-2-yl)methanone] | > 5000 nM
COc1ccc(-c2nnc(C(=O)N3CCc4[nH]cnc4[C@@H]3c3cc4cccc(F)n4n3)o2)nc1 [Example 1524, (R)-(4-(7-fluoropyrazolo[1,5-a]pyridin-2-yl)-6,7-dihydro-1H-imidazo[4,5-c]pyridin-5(4H)-yl)(5-(5-methoxypyridin-2-yl)-1,3,4-oxadiazol-2-yl)methanone] | > 5000 nM
COc1ccc(-c2nnc(C(=O)N3CCc4[nH]cnc4[C@H]3c3cc4cccc(F)n4n3)o2)nc1 [Example 1525, (S)-(4-(7-fluoropyrazolo[1,5-a]pyridin-2-yl)-6,7-dihydro-1H-imidazo[4,5-c]pyridin-5(4H)-yl)(5-(5-methoxypyridin-2-yl)-1,3,4-oxadiazol-2-yl)methanone] | 500 to 1000 nM
Cn1nccc1-c1nnc(C(=O)N2CCc3[nH]cnc3[C@@H]2c2cc3cccc(F)n3n2)o1 [Example 1527, (R)-(4-(7-fluoropyrazolo[1,5-a]pyridin-2-yl)-6,7-dihydro-1H-imidazo[4,5-c]pyridin-5(4H)-yl)(5-(1-methyl-1H-pyrazol-5-yl)-1,3,4-oxadiazol-2-yl)methanone] | > 5000 nM
Cc1cnn(C)c1-c1nnc(C(=O)N2CCc3[nH]cnc3[C@H]2c2cc3cccc(F)n3n2)o1 [Example 1528, (S)-(5-(1,4-dimethyl-1H-pyrazol-5-yl)-1,3,4-oxadiazol-2-yl)(4-(7-fluoropyrazolo[1,5-a]pyridin-2-yl)-6,7-dihydro-1H-imidazo[4,5-c]pyridin-5(4H)-yl)methanone] | < 500 nM
Cc1cc(-c2nnc(C(=O)N3CCc4[nH]cnc4[C@@H]3c3cc4c(C(F)F)cccn4n3)o2)nn1C [Example 1530, (R)-(4-(4-(difluoromethyl)pyrazolo[1,5-a]pyridin-2-yl)-6,7-dihydro-1H-imidazo(4,5-c]pyridin-5(4H)-yl)(5-(1,5-dimethyl-1H-pyrazol-3-yl)-1,3,4-oxadiazol-2-yl)methanone] | > 5000 nM
Cc1cc(-c2nnc(C(=O)N3CCc4[nH]cnc4[C@H]3c3cc4c(C(F)F)cccn4n3)o2)nn1C [Example 1531, (S)-(4-(4-(difluoromethyl)pyrazolo[1,5-a]pyridin-2-yl)-6,7-dihydro-1H-imidazo[4,5-c]pyridin-5(4H)-yl)(5-(1,5-dimethyl-1H-pyrazol-3-yl)-1,3,4-oxadiazol-2-yl)methanone] | < 500 nM

More lines, now with the values ahead:

AC50 | Structure (SMILES)
< 500 nM | Cn1nccc1-c1nnc(C(=O)N2CCc3[nH]cnc3[C@H]2c2cc3c(C(F)F)cccn3n2)o1 [Example 1532, (S)-(4-(4-(difluoromethyl)pyrazolo[1,5-a]pyridin-2-yl)-6,7-dihydro-1H-imidazo[4,5-c]pyridin-5(4H)-yl)(5-(1-methyl-1H-pyrazol-5-yl)-1,3,4-oxadiazol-2-yl)methanone]
1000 to 5000 nM | O=C(c1nnc(-c2cnccn2)o1)N1CCc2[nH]cnc2[C@@H]1c1cc2cccc(C(F)F)n2n1 [Example 1534, (R)-(4-(7-(difluoromethyl)pyrazolo[1,5-a]pyridin-2-yl)-6,7-dihydro-1H-imidazo[4,5-c]pyridin-5(4H)-yl)(5-(pyrazin-2-yl)-1,3,4-oxadiazol-2-yl)methanone]
500 to 1000 nM | Cc1cc(-c2nnc(C(=O)N3CCc4[nH]cnc4[C@H]3c3cc4cccc(C(F)F)n4n3)o2)nn1C [Example 1537, (S)-(4-(7-(difluoromethyl)pyrazolo[1,5-a]pyridin-2-yl)-6,7-dihydro-1H-imidazo[4,5-c]pyridin-5(4H)-yl)(5-(1,5-dimethyl-1H-pyrazol-3-yl)-1,3,4-oxadiazol-2-yl)methanone]
500 to 1000 nM | O=C(c1nnc(-c2cnn(C(F)(F)F)c2)o1)N1CCc2[nH]cnc2[C@H]1c1cc2c(C(F)(F)F)cccn2n1 [Example 1538, (S)-(5-(1-(trifluoromethyl)-1H-pyrazol-4-yl)-1,3,4-oxadiazol-2-yl)(4-(4-(trifluoromethyl)pyrazolo[1,5-a]pyridin-2-yl)-6,7-dihydro-1H-imidazo[4,5-c]pyridin-5(4H)-yl)methanone]
500 to 1000 nM | O=C(c1nnc(-c2cnn(C(F)(F)F)c2)o1)N1CCc2[nH]cnc2[C@H]1c1cc2c(F)cccn2n1 [Example 1540, (S)-(4-(4-fluoropyrazolo[1,5-a]pyridin-2-yl)-6,7-dihydro-1H-imidazo[4,5-c]pyridin-5(4H)-yl)(5-(1-(trifluoromethyl)-1H-pyrazol-4-yl)-1,3,4-oxadiazol-2-yl)methanone]
500 to 1000 nM | O=C(c1nnc(-c2ccn(C(F)(F)F)n2)o1)N1CCc2[nH]cnc2[C@H]1c1cc2cccc(C(F)(F)F)n2n1 [Example 1542, (S)-(5-(1-(trifluoromethyl)-1H-pyrazol-3-yl)-1,3,4-oxadiazol-2-yl)(4-(7-(trifluoromethyl)pyrazolo[1,5-a]pyridin-2-yl)-6,7-dihydro-1H-imidazo[4,5-c]pyridin-5(4H)-yl)methanone]
< 500 nM | O=C(c1nnc(-c2ccn(C(F)(F)F)n2)o1)N1CCc2[nH]cnc2[C@H]1c1cc2cccc(C(F)F)n2n1 [Example 1544, (S)-(4-(7-(difluoromethyl)pyrazolo[1,5-a]pyridin-2-yl)-6,7-dihydro-1H-imidazo[4,5-c]pyridin-5(4H)-yl)(5-(1-(trifluoromethyl)-1H-pyrazol-3-yl)-1,3,4-oxadiazol-2-yl)methanone]
1000 to 5000 nM | O=C(c1nnc(-c2ccn(C(F)(F)F)n2)o1)N1CCc2[nH]cnc2[C@@H]1c1cc2cccc(C(F)F)n2n1 [Example 1545, (R)-(4-(7-(difluoromethyl)pyrazolo[1,5-a]pyridin-2-yl)-6,7-dihydro-1H-imidazo[4,5-c]pyridin-5(4H)-yl)(5-(1-(trifluoromethyl)-1H-pyrazol-3-yl)-1,3,4-oxadiazol-2-yl)methanone]
500 to 1000 nM | CN(C)Cc1ccc2c(C(=O)N3CCc4[nH]cnc4[C@H]3c3cc4c(C(F)(F)F)cccn4n3)cnn2c1 [Example 1546, (S)-(6-((dimethylamino)methyl)pyrazolo[1,5-a]pyridin-3-yl)(4-(4-(trifluoromethyl)pyrazolo[1,5-a]pyridin-2-yl)-6,7-dihydro-1H-imidazo[4,5-c]pyridin-5(4H)-yl)methanone]
> 5000 nM | CN(C)Cc1ccc2c(C(=O)N3CCc4[nH]cnc4[C@@H]3c3cc4c(C(F)(F)F)cccn4n3)cnn2c1 [Example 1547, (R)-(6-((dimethylamino)methyl)pyrazolo[1,5-a]pyridin-3-yl)(4-(4-(trifluoromethyl)pyrazolo[1,5-a]pyridin-2-yl)-6,7-dihydro-1H-imidazo[4,5-c]pyridin-5(4H)-yl)methanone]
